Source: ChEMBL document CHEMBL1201862, “PubChem BioAssay data set” (2004)
Active and inactive are the calls of the source.

What was measured:
Prothrombin = Prothrombin (Homo sapiens, UniProt P00734); assay: Thrombin 1536 HTS Dose Response Confirmation. [Related pubchem assays: 1046 (Thrombin 1536 HTS; hits were confirmed in this assay)]; assay type: functional
Coagulation factor XII = Coagulation factor XII (Homo sapiens, UniProt P00748); assay type: functional;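 further: activated factor XIIa alpha cleaving a fluorogenic AMC peptide substrate; inhibitor potency from loss of enzyme activity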
Cannabinoid receptor 2 [1] = target: T1, Cannabinoid receptor 2 (Homo sapiens, UniProt P34972); assay: SAR analysis of antagonists of the Cannabinoid Receptor 2 using an Image-Based Assay - Set 2. [Related pubchem assays (depositor defined):AID1961, AID1965]; assay type: functional
[2] = target: G-protein coupled receptor 55 (Homo sapiens, UniProt Q9Y2T6); assay: SAR analysis of selective Agonists of GPR55 using an Image-Based Assay - Set 2. [Related pubchem assays (depositor defined):AID1961, AID1965]; assay type: functional
Cannabinoid receptor 2 [3] = target: T1, Cannabinoid receptor 2; assay: SAR analysis of agonists of the Cannabinoid Receptor 2 using an Image-Based Assay - Set 2. [Related pubchem assays (depositor defined):AID1961, AID1965]; assay type: functional
[4] = target: T2, G-protein coupled receptor 35 (Homo sapiens, UniProt Q9HC97); assay: SAR analysis of Agonists of the GPR35 Receptor using an Image-Based Assay - Set 3. [Related pubchem assays (depositor defined):AID1961, AID1965]; assay type: functional
Cannabinoid receptor 1 [5] = target: T3, Cannabinoid receptor 1 (Homo sapiens, UniProt P21554); assay: SAR analysis of antagonists of the Cannabinoid Receptor 1 using an Image-Based Assay - Set 3. [Related pubchem assays (depositor defined):AID1961, AID1965]; assay type: functional
Cannabinoid receptor 1 [6] = target: T3, Cannabinoid receptor 1; assay: SAR analysis of agonists of the Cannabinoid Receptor 1 using an Image-Based Assay - Set 3. [Related pubchem assays (depositor defined):AID1961, AID1965]; assay type: functional
[7] = target: T2, G-protein coupled receptor 35; assay: SAR analysis of Antagonists of the GPR35 Receptor using an Image-Based Assay - Set 4. [Related pubchem assays (depositor defined):[…]]; assay type: functional
Major prion protein = Major prion protein (Homo sapiens, UniProt P04156); assay type: functional, cell-based
T-cell = assay: inhibitors of CD8+ T cell–vesicle binding, dose response, mouse 2C CD8+ T cells, flow cytometry (AID 485284); assay type: functional
Genome polyprotein = Genome polyprotein (Hepatitis C virus, UniProt Q2Q167); assay: HCV core protein dimerization inhibitors, dose response, biochemical, TR-FRET (AID 2159); set-up: species or system Hepacivirus hominis;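 further: blocks dimerization of HCV core protein measured by TR-FRET between tagged core106 pairs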
SUMO-activating enzyme [8] = target: T4, SUMO-activating enzyme (Homo sapiens, UniProt Q9UBT2); assay: SUMOylation inhibitor hit validation, confirmation, SUMOylation inhibitor project, biochemical, AlphaScreen (AID 2018); assay type: functional
[9] = target: T5, Voltage-gated N-type calcium channel alpha-1B subunit/Amyloid beta A4 precursor protein-binding family A member 1 (Homo sapiens, UniProt Q00975+Q02410); assay type: protein assay
SUMO-activating enzyme [10] = target: T4, SUMO-activating enzyme; assay: inhibitors of in vitro SUMOylation cascade, primary screen, biochemical, HTRF, uHTS (AID 2006); assay type: protein-complex assay
[11] = target: T5, Voltage-gated N-type calcium channel alpha-1B subunit/Amyloid beta A4 precursor protein-binding family A member 1; assay type: protein assay; remark: listed apart in the source
Paired box protein Pax-8 = Paired box protein Pax-8 (Homo sapiens, UniProt Q06710); assay: inhibitors of PAX8-driven TPO luciferase reporter, dose response, RMG-I cells, cherry-pick (AID 687027); assay type: functional, cell-based;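 further: luciferase reporter driven by Pax8 target thyroperoxidase promoter measured by SteadyGlo luminescence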
[12] = target: T2, G-protein coupled receptor 35; assay: GPR35 antagonists blocking zaprinast-driven arrestin recruitment, primary screen, imaging, U2OS, beta-arrestin-GFP, zaprinast agonist (AID 2058); assay type: functional;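 further: antagonist potency meaning inhibition of agonist-induced arrestin redistribution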
[13] = target: E3 ubiquitin-protein ligase Mdm2/Protein Mdm4 (Homo sapiens, UniProt O15151+Q00987); assay: Mdm2-MdmX interaction inhibitors, dose response, luminescence detection (AID 504593); assay type: functional
[14] = target: T6, Microphthalmia-associated transcription factor (Homo sapiens, UniProt O75030); assay: TRPM1 promoter luciferase signal decrease, dose response, MITF inhibitor project, cell-based, SK-MEL-5, cherry-picked, set 3 (AID 493073); assay type: functional
T6 sequence (O75030 whole entry): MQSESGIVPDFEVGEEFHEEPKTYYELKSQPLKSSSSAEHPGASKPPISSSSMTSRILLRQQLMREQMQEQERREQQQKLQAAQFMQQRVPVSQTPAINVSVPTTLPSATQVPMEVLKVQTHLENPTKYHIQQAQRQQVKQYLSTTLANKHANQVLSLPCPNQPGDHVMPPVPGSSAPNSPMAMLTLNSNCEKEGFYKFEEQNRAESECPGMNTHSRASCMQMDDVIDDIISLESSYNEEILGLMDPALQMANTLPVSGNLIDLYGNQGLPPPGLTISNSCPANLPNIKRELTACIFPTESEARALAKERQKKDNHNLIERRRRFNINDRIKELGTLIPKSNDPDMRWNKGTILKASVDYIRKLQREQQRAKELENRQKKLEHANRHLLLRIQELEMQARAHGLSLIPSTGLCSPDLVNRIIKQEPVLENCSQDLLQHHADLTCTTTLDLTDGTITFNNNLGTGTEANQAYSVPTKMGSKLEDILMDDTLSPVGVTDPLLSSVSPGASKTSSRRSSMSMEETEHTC

A-375 = assay: A375 melanoma cell viability reduction, dose response, counter-screen for MITF modulator project, cherry-pick samples, set 2 (AID 540335); assay type: functional, cell-based; settings: Homo sapiens
Troponin, cardiac muscle = Troponin, cardiac muscle (Homo sapiens, UniProt P19429+P45379+P63316); assay: Fluorescence-based biochemical high throughput dose response assay for activators of the calcium sensitivity of cardiac Regulated Thin Filaments (RTF). [Related pubchem assays (depositor defined):AID493008, AID493018, AID504382, AID504383]; assay type: protein-complex assay
[15] = target: T7, Sphingosine 1-phosphate receptor 4 (Homo sapiens, UniProt O95977); assay: Late-stage fluorescence dose response cell-based assay to identify agonists of the Sphingosine 1-Phosphate Receptor 4 (S1P4): purchased compounds EC50. [Related pubchem assays (depositor defined):AID1509, AID1523, AID1563, AID1686, AID1701, AID1801]; assay type: functional
T7 sequence (O95977 whole entry): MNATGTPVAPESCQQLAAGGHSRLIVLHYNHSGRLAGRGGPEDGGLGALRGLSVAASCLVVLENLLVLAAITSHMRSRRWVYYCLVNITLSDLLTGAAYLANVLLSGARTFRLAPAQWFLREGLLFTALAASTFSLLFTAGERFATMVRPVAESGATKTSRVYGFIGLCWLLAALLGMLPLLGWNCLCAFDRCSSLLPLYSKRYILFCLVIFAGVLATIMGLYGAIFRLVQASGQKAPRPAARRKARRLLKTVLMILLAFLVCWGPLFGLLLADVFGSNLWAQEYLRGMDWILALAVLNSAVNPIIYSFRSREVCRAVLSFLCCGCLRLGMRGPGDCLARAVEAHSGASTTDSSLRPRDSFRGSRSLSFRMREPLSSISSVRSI

[16] = target: Alkaline phosphatase, placental type (Homo sapiens, UniProt P05187); assay: PLAP enzyme inhibitors, confirmation, biochemical, luminescence (AID 1512); assay type: functional
[17] = target: T8, Alkaline phosphatase, tissue-nonspecific isozyme (Homo sapiens, UniProt P05186); assay: human TNAP enzyme inhibitors, SAR follow-up, biochemical, luminescent, dose response (AID 1056)
T8 sequence (P05186 whole entry): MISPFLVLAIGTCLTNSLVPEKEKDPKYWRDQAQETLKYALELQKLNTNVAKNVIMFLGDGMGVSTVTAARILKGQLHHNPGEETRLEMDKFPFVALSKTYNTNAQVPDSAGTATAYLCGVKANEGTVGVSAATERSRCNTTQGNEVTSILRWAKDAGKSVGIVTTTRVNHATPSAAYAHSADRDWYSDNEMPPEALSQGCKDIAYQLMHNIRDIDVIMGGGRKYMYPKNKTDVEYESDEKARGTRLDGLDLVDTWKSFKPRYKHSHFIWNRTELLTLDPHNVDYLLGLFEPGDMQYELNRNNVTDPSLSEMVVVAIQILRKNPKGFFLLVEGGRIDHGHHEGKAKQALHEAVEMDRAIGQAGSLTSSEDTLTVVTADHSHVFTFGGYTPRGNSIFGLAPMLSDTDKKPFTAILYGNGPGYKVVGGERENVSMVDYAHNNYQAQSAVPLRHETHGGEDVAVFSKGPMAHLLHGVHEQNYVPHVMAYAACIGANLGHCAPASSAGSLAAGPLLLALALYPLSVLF

Mu-type opioid receptor = Mu-type opioid receptor (Homo sapiens, UniProt P35372); assay: SAR Analysis of Antagonists of the MOR Receptor using an Image-Based Assay - Set 3. [Related pubchem assays (depositor defined):AID1777, AID1785, AID1786, AID1966, AID2133, AID2136, AID2284, AID2285, AID2420]; assay type: functional
[18] = target: Delta-type opioid receptor (Homo sapiens, UniProt P41143); assay: SAR Analysis of Antagonists of the DOR Receptor using an Image-Based Assay - Set 3. [Related pubchem assays (depositor defined):AID1777, AID1785]; assay type: functional;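 further: U2OS cells expressing DOR1 and beta-arrestin GFP stimulated with 100 nM SNC80; imaging of GFP-tagged beta-arrestin moving into spots after receptor activation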
[19] = target: T9, Kappa-type opioid receptor (Homo sapiens, UniProt P41145); assay: SAR analysis of small molecule antagonists of the kappa opioid receptor via a luminescent beta-arrestin assay - Set 3. [Related pubchem assays (depositor defined):AID1777, AID1778, AID1785, AID1786, AID1966, AID2133, AID2136, AID2285, AID2495]; assay type: functional
[20] = target: T9, Kappa-type opioid receptor; assay: SAR analysis of Antagonists of the Kappa Opioid Receptor (KOR) using an Image-Based Assay - Set 3. [Related pubchem assays (depositor defined):AID1777, AID1785]; assay type: functional

## COCCNC(=S)NN=C1CCCCCC1
Prothrombin
  IC50: > 50 µM (not active)
Coagulation factor XII
  IC50: > 50 µM (inactive)

## O=C(Nc1cc(S(=O)(=O)N2CCOCC2)ccc1N1CCCC1)c1cc2c(s1)CCCC2
Cannabinoid receptor 2 [1]
  IC50: > 32 µM (inactive)
[2]
  EC50: 1.57 µM (active)
Cannabinoid receptor 2 [3]
  EC50: > 32 µM (inactive)
[4]
  EC50: > 32 µM (inactive)
Cannabinoid receptor 1 [5]
  IC50: > 32 µM (inactive)
Cannabinoid receptor 1 [6]
  EC50: > 32 µM (inactive)
[7]
  IC50: > 32 µM (inactive)
Major prion protein
  IC50: 5.47 µM (active)
cells
  IC50: > 138 µM (inactive)

## COc1ccc(C2=CC(=O)C[C@H](c3ccc4c(c3)OCO4)C2)cn1
T-cell
  EC50: 19.9 µM (active)

## COc1ccc(-c2nc3c(c(SCC(=O)Nc4cccc(O)c4)n2)Cc2c(CO)cnc(C)c2O3)cc1
Genome polyprotein
  IC50: > 49.8 µM (not active)
SUMO-activating enzyme [8]
  IC50: 9.01 µM (active)
[9]
  IC50: 28.1 µM (active)
SUMO-activating enzyme [10]
  IC50: 32.8 µM (active)
[11]
  IC50: > 50 µM (inactive)
Paired box protein Pax-8
  AC50: 67.6 µM (active)

## CCN(CC)S(=O)(=O)c1ccc(NC(=O)c2cccnc2Cl)c(NC(=O)c2cccnc2Cl)c1
[12]
  IC50: 8.8 µM (active)
[13]
  IC50: 4.18 µM (active)
[14]
  AC50: 7.02 µM (active)
A-375
  AC50: 23.2 µM (active)

## CCOC(=O)N1CCN(C(S)=Nc2ccccc2C)CC1
Troponin, cardiac muscle
  EC50: > 71.4 µM (inactive)

## Cc1nn(Cc2ccccc2)c(Cl)c1C(=O)OC(C)C(=O)NCc1cccs1 (stereo not given)
[15]
  EC50: > 50 µM (inactive)

## Cc1ccc(-n2nnnc2SCC(=O)c2ccc(O)c(O)c2)cc1
[16]
  IC50: 1.58 µM (active)
[17]
  IC50: 8.58 µM (active)

## O=C(Cn1c(=O)c2cccn2c2cccnc21)NCCCN1CCCCC1
Mu-type opioid receptor
  IC50: > 32 µM (inactive)
[18]
  IC50: > 32 µM (inactive)
[19]
  IC50: > 20 µM (inactive)
[20]
  IC50: > 32 µM (inactive)
